The results in this text go back to ChEMBL document CHEMBL1201862, “PubChem BioAssay data set” (2004).

Some test systems named below: SF-295; SK-MEL-5; MDA-N; SK-MEL-28; ACHN; MCF7; U-251; SR; SF-268; UACC-62; SN12C; Malme-3M; NCI-H460; HL-60; NCI-H226; TK-10; MOLT-4; UO-31; PC-3; HOP-92.
Common to all, as to test: inhibition of tumour cell growth, NCI panel, 48 h

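Briefly, cells in 96-well plates were exposed to five compound concentrations for 48 h, and endpoints were estimated by linear interpolation. The concentration for 50% growth inhibition is given as GI50.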 Active and inactive are the calls of the source. Rule as the data show it: active = GI50 up to about 1.1 µM and inactive = higher. Where a SMILES comes first, the peptide text is derived from it. [ ]: non-standard residue; d: D form. The star is where a group is joined. Phe(4-NO2) = N[CH](Cc1ccc([N+](=O)[O-])cc1)C(=O)O; Cbz = O=C(OCc1ccccc1)*

As for `COc1ccc(OC)c2c(=O)cc(-c3ccccc3)[nH]c12`, the GI50 was > 100 µM (inactive) with SF-295; > 10 µM (inactive) in the test with SK-MEL-5; > 100 µM (inactive) with MDA-N; > 100 µM (inactive) in the test with SK-MEL-28; > 100 µM (inactive) in the test on ACHN; > 100 µM (inactive) in the test with MCF7. Moreover, the GI50 in the test on U-251, in the test on SR, in the test on SF-268, in the test on UACC-62, with SN12C and in the test with Malme-3M was > 100 µM (inactive) throughout. The GI50 with NCI-H460, with HL-60, in the test on NCI-H226, in the test with TK-10, in the test on MOLT-4 and in the test with UO-31 was > 100 µM (inactive) throughout. Besides, the GI50 in the test on PC-3 is > 100 µM (inactive).

Regarding `CC1C(c2ccc3c(c2)OCO3)c2cc3c(cc2OC1N1CCCC1)OCO3` (centres undefined), the GI50 in the test with SF-295 was 24 µM (inactive); in the test on SK-MEL-5, 17.7 µM (inactive); in the test with MDA-N, 16.1 µM (inactive); in the test with SK-MEL-28, 37.1 µM (inactive); with ACHN, 29.3 µM (inactive); with MCF7 it was 33.1 µM (inactive). Moreover, the GI50 with SR was 35.5 µM (inactive); in the test with SF-268, 23.1 µM (inactive); in the test with UACC-62, 53.6 µM (inactive); in the test on SN12C, 39.6 µM (inactive); with NCI-H460 it was 34.4 µM (inactive); in the test on TK-10 it was 24.9 µM (inactive). The GI50 in the test on MOLT-4 is 27.4 µM (inactive); in the test with UO-31, 17.2 µM (inactive); with PC-3 it was 32.9 µM (inactive).

As for `c1ccc2c(c1)Oc1cccc3cccc-2c13`, the GI50 in the test on SF-295, in the test with SK-MEL-5, in the test with MDA-N, with SK-MEL-28, in the test on ACHN and in the test on MCF7 was > 100 µM (inactive) throughout. Besides, the GI50 in the test with U-251, with HOP-92, in the test on SF-268, with UACC-62, with SN12C and with Malme-3M was > 100 µM (inactive) throughout. The GI50 in the test on NCI-H460 was > 100 µM (inactive); in the test with HL-60 it was > 100 µM (inactive); in the test with NCI-H226, > 100 µM (inactive); in the test on TK-10, > 100 µM (inactive); in the test on MOLT-4, 98.2 µM (inactive); in the test with UO-31 it was > 100 µM (inactive). The GI50 with PC-3 was > 100 µM (inactive).

`COC(=O)C1CC2C=CC1N(C(=O)OCc1ccccc1)C2` (centres undefined): the GI50 is > 100 µM (inactive) with SF-295; 92 µM (inactive) with SK-MEL-5; > 100 µM (inactive) in the test with MDA-N; > 100 µM (inactive) in the test on SK-MEL-28; > 100 µM (inactive) in the test on ACHN; 98.2 µM (inactive) in the test with MCF7. The GI50 is > 100 µM (inactive) in the test on U-251; 59.3 µM (inactive) in the test on SR; > 100 µM (inactive) in the test on SF-268; > 100 µM (inactive) with UACC-62; > 100 µM (inactive) in the test with SN12C; 26 µM (inactive) with Malme-3M. The GI50 with NCI-H460 was > 100 µM (inactive); with HL-60 it was > 100 µM (inactive); in the test on NCI-H226, > 100 µM (inactive); in the test on TK-10 it was > 100 µM (inactive); with MOLT-4 it was 81.3 µM (inactive); in the test on UO-31 it was > 100 µM (inactive). Further, the GI50 in the test with PC-3 was > 100 µM (inactive).

Take `CCOC(=O)CCC(NC(=O)OCc1ccccc1)C(=O)NC(CCC(=O)OCC)C(=O)NC(Cc1ccc([N+](=O)[O-])cc1)C(=O)NC(CCC(=O)OCC)C(=O)NC(CCC(=O)OCC)C(=O)OCC` (centres undefined) (Cbz-E(OEt)E(OEt)[Phe(4-NO2)]E(OEt)E(OEt)-OEt; configuration not given here): the GI50 in the test on SF-295, in the test on SK-MEL-5, in the test with MDA-N, in the test with SK-MEL-28, with ACHN and with MCF7 was > 100 µM (inactive) in each case. Besides, the GI50 in the test with U-251, in the test with SR, with UACC-62, in the test on SN12C, with Malme-3M and in the test with NCI-H460 was > 100 µM (inactive) throughout. The GI50 in the test with TK-10, with MOLT-4, with UO-31 and in the test on PC-3 was > 100 µM (inactive) throughout.

Regarding `Cc1nc2ccccc2n1Cc1nnc(N)o1`, the GI50 in the test with SF-295, with SK-MEL-5, in the test on MDA-N, with SK-MEL-28, with ACHN and in the test on MCF7 was > 100 µM (inactive) in each case. Also, the GI50 with U-251, with HOP-92, in the test with SR, in the test on SF-268, in the test on UACC-62 and with SN12C was > 100 µM (inactive) throughout. Besides, the GI50 in the test on Malme-3M, in the test with NCI-H460, with HL-60, with TK-10, in the test with MOLT-4 and in the test on UO-31 was > 100 µM (inactive) in each case. In addition, the GI50 in the test on PC-3 was > 100 µM (inactive).

With `COc1ccc(-c2c3c(n(C4OC(CO)C(O)C(O)C4O)c(=S)c2C#N)CCC3)cc1` (centres undefined), the GI50 in the test with SF-295 was 31.9 µM (inactive); in the test with SK-MEL-5, 14.8 µM (inactive); in the test with MDA-N, 53.8 µM (inactive); in the test on SK-MEL-28 it was 35.1 µM (inactive); in the test on ACHN it was 38.5 µM (inactive); in the test with MCF7, 37.6 µM (inactive). Also, the GI50 in the test on U-251 was 37.1 µM (inactive); in the test with HOP-92, 28.6 µM (inactive); with SR it was 38.4 µM (inactive); in the test on SF-268, 62.8 µM (inactive); in the test with UACC-62 it was 42 µM (inactive); with SN12C, 37 µM (inactive). The GI50 is 57.8 µM (inactive) with Malme-3M; 45.2 µM (inactive) in the test on NCI-H460; 34.7 µM (inactive) with HL-60; > 100 µM (inactive) in the test with TK-10; 28.8 µM (inactive) in the test on MOLT-4; > 100 µM (inactive) in the test on UO-31. The GI50 in the test on PC-3 was 41.3 µM (inactive).

In the case of `Oc1cccc2cc(Cl)cnc12`, the GI50 in the test on SF-295 was 3.39 µM (inactive); in the test with SK-MEL-5 it was 8.41 µM (inactive); in the test on MDA-N it was 31.9 µM (inactive); in the test with SK-MEL-28, 58.7 µM (inactive); with ACHN, 8.95 µM (inactive); with MCF7, 3.4 µM (inactive). The GI50 in the test with U-251 is 9.08 µM (inactive); with HOP-92, 43.2 µM (inactive); in the test with SF-268, 3.85 µM (inactive); in the test with UACC-62 it was 5.51 µM (inactive); in the test with SN12C it was 7.33 µM (inactive); in the test with Malme-3M it was > 30.3 µM (inactive). Besides, the GI50 with NCI-H460 was 6.95 µM (inactive); in the test with HL-60, 1.08 µM (active); in the test on NCI-H226 it was 27.4 µM (inactive); with TK-10, 39.5 µM (inactive); in the test with MOLT-4 it was 3.78 µM (inactive); with UO-31, 8.09 µM (inactive). For the same molecule, the GI50 with PC-3 is 10.6 µM (inactive).

Regarding `Cc1ccc(S(=O)(=O)n2ccc(-c3ccc4ccn(S(=O)(=O)c5ccc(C)cc5)c4c3)c2)cc1`, the GI50 with SF-295, with SK-MEL-5, in the test with MDA-N, with ACHN, with MCF7 and in the test on U-251 was > 100 µM (inactive) in each case. Moreover, the GI50 with SR, in the test on SF-268, in the test with UACC-62, in the test on SN12C, with Malme-3M and with HL-60 was > 100 µM (inactive) each time. Besides, the GI50 in the test on NCI-H226, in the test on TK-10, with MOLT-4, in the test on UO-31 and in the test with PC-3 was > 100 µM (inactive) each time.

On to `COc1ccc(C(=O)/C=C/c2ccc(OCCCOc3ccc(/C=C/C(=O)c4ccc(OC)c(OC)c4)cc3)cc2)cc1OC`, for which the GI50 with SF-295, with SK-MEL-5, in the test on MDA-N, in the test on SK-MEL-28, with ACHN and in the test on MCF7 was > 100 µM (inactive) in each case. The GI50 in the test with U-251, in the test on SR, in the test with SF-268, in the test with UACC-62, in the test with SN12C and in the test on NCI-H460 was > 100 µM (inactive) in each case. The GI50 in the test on HL-60, with NCI-H226, with TK-10, in the test with MOLT-4, in the test with UO-31 and in the test on PC-3 was > 100 µM (inactive) throughout.

On to `NC(=O)Cc1nc2c(O)ncnc2n1C1OC(CO)C(O)C1O` (centres undefined), for which the GI50 with SF-295, in the test on SK-MEL-5, in the test with MDA-N, in the test with SK-MEL-28, in the test on ACHN and with MCF7 was > 100 µM (inactive) throughout. Further, the GI50 with U-251, in the test with HOP-92, with SF-268, in the test on UACC-62, in the test on SN12C and in the test on Malme-3M was > 100 µM (inactive) throughout. Also, the GI50 in the test with NCI-H460, with HL-60, in the test with NCI-H226, in the test with TK-10, with MOLT-4 and in the test with UO-31 was > 100 µM (inactive) each time. The GI50 with PC-3 is > 100 µM (inactive).
